Like-named read-outs stand apart in the source and are kept apart here.
Target: CFTR (Homo sapiens, UniProt P13569)
Assay: Membrane Potential Dye, Enteroid Assay B
Format: cell-based
Method in brief: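 Activity given as % of a triple-combination reference (1 μM and 3 μM correctors, 300 nM acute potentiator). Enteroids were preincubated 18-24 h with compound; chloride efflux then measured 15 min by methyl oxonol fluorescence after forskolin/IBMX/Compound III stimulation in chloride-free buffer containing CaCCinh-A01 and Chicago Sky Blue.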

[1] = Table 10, read-out: Ent. B EC50

CFTR, sequence (P13569 with tags, fused parts or gaps DEL508-508): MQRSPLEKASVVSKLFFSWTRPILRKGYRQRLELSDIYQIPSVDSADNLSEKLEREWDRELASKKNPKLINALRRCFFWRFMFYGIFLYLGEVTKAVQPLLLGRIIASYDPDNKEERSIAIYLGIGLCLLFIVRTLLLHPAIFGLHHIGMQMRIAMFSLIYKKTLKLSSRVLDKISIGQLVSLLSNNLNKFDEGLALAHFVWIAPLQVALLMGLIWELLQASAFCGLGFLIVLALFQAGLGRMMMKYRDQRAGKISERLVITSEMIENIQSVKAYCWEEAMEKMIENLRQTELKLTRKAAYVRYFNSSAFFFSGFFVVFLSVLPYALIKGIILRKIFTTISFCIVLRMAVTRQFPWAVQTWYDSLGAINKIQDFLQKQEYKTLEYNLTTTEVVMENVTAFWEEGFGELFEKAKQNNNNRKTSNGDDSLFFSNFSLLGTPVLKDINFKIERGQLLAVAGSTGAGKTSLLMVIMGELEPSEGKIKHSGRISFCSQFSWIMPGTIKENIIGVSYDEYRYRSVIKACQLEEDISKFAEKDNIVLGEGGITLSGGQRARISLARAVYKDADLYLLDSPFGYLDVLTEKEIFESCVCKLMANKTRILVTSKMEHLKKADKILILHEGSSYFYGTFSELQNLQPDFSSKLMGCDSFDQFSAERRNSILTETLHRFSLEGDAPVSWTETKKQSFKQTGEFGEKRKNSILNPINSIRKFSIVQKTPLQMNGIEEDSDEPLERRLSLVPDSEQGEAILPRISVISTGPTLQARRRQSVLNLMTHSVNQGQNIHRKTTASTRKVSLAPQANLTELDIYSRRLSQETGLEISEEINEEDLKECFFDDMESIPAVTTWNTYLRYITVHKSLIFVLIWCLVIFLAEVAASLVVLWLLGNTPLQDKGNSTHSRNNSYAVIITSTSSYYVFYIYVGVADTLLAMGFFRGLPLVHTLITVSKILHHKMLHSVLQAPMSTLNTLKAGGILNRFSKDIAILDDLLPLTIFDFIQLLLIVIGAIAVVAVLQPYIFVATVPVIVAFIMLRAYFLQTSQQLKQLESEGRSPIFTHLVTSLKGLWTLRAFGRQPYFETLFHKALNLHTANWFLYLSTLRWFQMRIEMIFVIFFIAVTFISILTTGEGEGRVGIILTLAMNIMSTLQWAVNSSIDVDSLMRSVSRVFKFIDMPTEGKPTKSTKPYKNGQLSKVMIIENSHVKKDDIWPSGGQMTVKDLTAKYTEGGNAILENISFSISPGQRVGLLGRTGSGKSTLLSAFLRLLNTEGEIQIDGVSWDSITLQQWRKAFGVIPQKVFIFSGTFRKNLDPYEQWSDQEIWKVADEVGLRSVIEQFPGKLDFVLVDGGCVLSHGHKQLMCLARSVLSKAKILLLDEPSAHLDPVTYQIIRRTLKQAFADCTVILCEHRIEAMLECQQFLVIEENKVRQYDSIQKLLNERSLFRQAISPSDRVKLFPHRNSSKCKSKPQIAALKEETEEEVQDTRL

Structure (SMILES)	Ent. B Max Activity (%) (Table 9)	EC50 (Table 9, read-out: Ent. B EC50) [nM]	also measured
Cc1cccc(C)c1-c1cc2nc(n1)NS(=O)(=O)c1cccc(c1)C(=O)N([C@H]1C[C@]3(C[C@H](NC(=O)OC(C)C)C3)C1)[C@H](CC1(C(F)(F)F)CC1)CO2 (stereo partly drawn) [Compound 79, Isopropyl ((2R,4r,6R)-6-((R)-1^6-(2,6-dimethylphenyl)-3,3-dioxido-5-oxo-7-((1-(trifluoromethyl)cyclopropyl)methyl)-9-oxa-3-thia-2,6-diaza-1(2,4)-pyrimidina-4(1,3)-benzenacyclononaphane-6-yl)spiro[3.3]heptan-2-yl)carbamate]			Ent. B Max Activity (%): +++ (+++ is >60%); EC50 (read-out: Ent. B EC50): < 1000 nM
CC(=O)N[C@H]1C[C@@]2(C1)C[C@H](N1C(=O)c3cccc(c3)S(=O)(=O)Nc3nc(cc(-c4c(C)cccc4C)n3)OC[C@H]1CC1(C(F)(F)F)CC1)C2 (stereo partly drawn) [Compound 85, N-((2R,4r,6R)-6-((R)-1^6-(2,6-Dimethylphenyl)-3,3-dioxido-5-oxo-7-((1-(trifluoromethyl)cyclopropyl)methyl)-9-oxa-3-thia-2,6-diaza-1(2,4)-pyrimidina-4(1,3)-benzenacyclononaphane-6-yl)spiro[3.3]heptan-2-yl)acetamide]	+++ (+++ is >60%)	< 1000	
COC(=O)NC1CC2(C1)CC(N1C(=O)c3cccc(c3)S(=O)(=O)Nc3nc(cc(-c4c(C)cccc4C)n3)OC[C@H]1CC(C)(C)C)C2 (stereo partly drawn) [Compound 88, Methyl ((2S,4s,6S)-6-((R)-1^6-(2,6-dimethylphenyl)-7-neopentyl-3,3-dioxido-5-oxo-9-oxa-3-thia-2,6-diaza-1(2,4)-pyrimidina-4(1,3)-benzenacyclononaphane-6-yl)spiro[3.3]heptan-2-yl)carbamate]	+++ (+++ is >60%)	< 1000	
Cc1cccc(C)c1-c1cc2nc(n1)NS(=O)(=O)c1cccc(c1)C(=O)N(C1CC3(CC(NC(=O)OC(C)C)C3)C1)[C@H](CC(C)(C)C)CO2 (stereo partly drawn) [Compound 92, Isopropyl ((2S,4s,6S)-6-((R)-1^6-(2,6-dimethylphenyl)-7-neopentyl-3,3-dioxido-5-oxo-9-oxa-3-thia-2,6-diaza-1(2,4)-pyrimidina-4(1,3)-benzenacyclononaphane-6-yl)spiro[3.3]heptan-2-yl)carbamate]	+++ (+++ is >60%)	< 1000	
COC(=O)N(C)C1CC2(C1)CC(N1C(=O)c3cccc(c3)S(=O)(=O)Nc3nc(cc(-c4c(C)cccc4C)n3)OC[C@H]1CC(C)(C)C)C2 (stereo partly drawn) [Compound 94, Methyl ((2R,4r,6R)-6-((R)-1^6-(2,6-dimethylphenyl)-7-neopentyl-3,3-dioxido-5-oxo-9-oxa-3-thia-2,6-diaza-1(2,4)-pyrimidina-4(1,3)-benzenacyclononaphane-6-yl)spiro[3.3]heptan-2-yl)(methyl)carbamate]			Ent. B Max Activity (%) (Table 10): ++ (++ is 30-60%); EC50 [1]: < 1000 nM
Cc1cccc(C)c1-c1cc2nc(n1)NS(=O)(=O)c1cccc(c1)C(=O)N(c1cnn(C)c1)[C@H](CC(C)C)CO2 [Compound 97, (11R)-6-(2,6-Dimethylphenyl)-11-isobutyl-12-(1-methylpyrazol-4-yl)-2,2-dioxo-9-oxa-2λ^6-thia-3,5,12,19-tetrazatricyclo[12.3.1.14,8]nonadeca-1(18),4(19),5,7,14,16-hexaen-13-one]			Ent. B Max Activity (%) (Table 10): +++ (+++ is >60%); EC50 [1]: < 1000 nM
Cc1cccc(C)c1-c1cc2nc(n1)NS(=O)(=O)c1cccc(c1)C(=O)N(C1CC3(C1)CN(C(=O)OC(C)C)C3)[C@H](CC(C)C)CO2 [Compound 102, Isopropyl 6-[(11R)-6-(2,6-dimethylphenyl)-11-isobutyl-2,2,13-trioxo-9-oxa-2λ^6-thia-3,5,12,19-tetrazatricyclo[12.3.1.14,8]nonadeca-1(18),4(19),5,7,14,16-hexaen-12-yl]-2-azaspiro[3.3]heptane-2-carboxylate]			Ent. B Max Activity (%): +++ (+++ is >60%); EC50 (read-out: Ent. B EC50): < 1000 nM
Cc1cccc(C)c1-c1cc2nc(n1)NS(=O)(=O)c1cccc(c1)C(=O)N(C1CC3(C1)CN(C(C)C)C3)[C@H](CC(C)C)CO2 [Compound 103, (11R)-6-(2,6-Dimethylphenyl)-11-isobutyl-12-(2-isopropyl-2-azaspiro[3.3]heptan-6-yl)-2,2-dioxo-9-oxa-2λ^6-thia-3,5,12,19-tetrazatricyclo[12.3.1.14,8]nonadeca-1(18),4(19),5,7,14,16-hexaen-13-one]			Ent. B Max Activity (%): +++ (+++ is >60%); EC50 (read-out: Ent. B EC50): < 1000 nM
COCCN1CC2(CC(N3C(=O)c4cccc(c4)S(=O)(=O)Nc4nc(cc(-c5c(C)cccc5C)n4)OC[C@H]3CC(C)C)C2)C1 [Compound 104, (11R)-6-(2,6-Dimethylphenyl)-11-isobutyl-12-[2-(2-methoxyethyl)-2-azaspiro[3.3]heptan-6-yl]-2,2-dioxo-9-oxa-2λ^6-thia-3,5,12,19-tetrazatricyclo[12.3.1.14,8]nonadeca-1(18),4(19),5,7,14,16-hexaen-13-one]	+++ (+++ is >60%)		
Cc1cccc(C)c1-c1cc2nc(n1)NS(=O)(=O)c1cccc(c1)C(=O)N(C1CN(C(=O)OC(C)C)C(C)(C)C1)[C@H](CC(C)C)CO2 (stereo partly drawn) [Compound 110, Propan-2-yl 4-[(11R)-6-(2,6-dimethylphenyl)-11-(2-methylpropyl)-2,2,13-trioxo-9-oxa-2λ^6-thia-3,5,12,19-tetraazatricyclo[12.3.1.14,8]nonadeca-1(17),4(19),5,7,14(18),15-hexaen-12-yl]-2,2-dimethylpyrrolidine-1-carboxylate]	+++ (+++ is >60%)	< 1000	
COCCN1CCC2(CC1)CC(N1C(=O)c3cccc(c3)S(=O)(=O)Nc3nc(cc(-c4c(C)cccc4C)n3)OC[C@H]1CC1(C(F)(F)F)CC1)C2 [Compound 128, (11R)-6-(2,6-Dimethylphenyl)-12-[7-(2-methoxyethyl)-7-azaspiro[3.5]nonan-2-yl]-2,2-dioxo-11-[[1-(trifluoromethyl)cyclopropyl]methyl]-9-oxa-2λ^6-thia-3,5,12,19-tetrazatricyclo[12.3.1.14,8]nonadeca-1(18),4(19),5,7,14,16-hexaen-13-one]			Ent. B Max Activity (%): +++ (+++ is >60%); EC50 (read-out: Ent. B EC50): < 1000 nM
Cc1cccc(C)c1-c1cc2nc(n1)NS(=O)(=O)c1cccc(c1)C(=O)N(C1CC3(CCN(CCOC(C)C)CC3)C1)[C@H](CC1(C(F)(F)F)CC1)CO2 [Compound 129, (11R)-6-(2,6-dimethylphenyl)-12-[7-(2-isopropoxyethyl)-7-azaspiro[3.5]nonan-2-yl]-2,2-dioxo-11-[[1-(trifluoromethyl)cyclopropyl]methyl]-9-oxa-2λ^6-thia-3,5,12,19-tetrazatricyclo[12.3.1.14,8]nonadeca-1(18),4(19),5,7,14,16-hexaen-13-one]			Ent. B Max Activity (%): +++ (+++ is >60%); EC50 (read-out: Ent. B EC50): < 1000 nM

Now from value to compound, other results behind:

Ent. B Max Activity (%) (Table 9)	EC50 (Table 9, read-out: Ent. B EC50) [nM]	Structure (SMILES)	also measured
+++ (+++ is >60%)	< 1000	Cc1cccc(C)c1-c1cc2nc(n1)NS(=O)(=O)c1cccc(c1)C(=O)N([C@H]1C[C@]3(C[C@@H](N)C3)C1)[C@H](CC1(C(F)(F)F)CC1)CO2 (stereo partly drawn) [Compound 80, (R)-6-((2S,4s,6S)-6-Aminospiro[3.3]heptan-2-yl)-1^6-(2,6-dimethylphenyl)-7-((1-(trifluoromethyl)cyclopropyl)methyl)-9-oxa-3-thia-2,6-diaza-1(2,4)-pyrimidina-4(1,3)-benzenacyclononaphan-5-one 3,3-dioxide]	
+++ (+++ is >60%)	< 1000	Cc1cccc(C)c1-c1cc2nc(n1)NS(=O)(=O)c1cccc(c1)C(=O)N([C@H]1C[C@@]3(C[C@@H](N)C3)C1)[C@H](CC1(C(F)(F)F)CC1)CO2 (stereo partly drawn) [Compound 81, (R)-6-((2R,4r,6R)-6-Aminospiro[3.3]heptan-2-yl)-1^6-(2,6-dimethylphenyl)-7-((1-(trifluoromethyl)cyclopropyl)methyl)-9-oxa-3-thia-2,6-diaza-1(2,4)-pyrimidina-4(1,3)-benzenacyclononaphan-5-one 3,3-dioxide]	
+++ (+++ is >60%)	< 1000	COCCN(C)[C@H]1C[C@]2(C1)C[C@H](N1C(=O)c3cccc(c3)S(=O)(=O)Nc3nc(cc(-c4c(C)cccc4C)n3)OC[C@H]1CC1(C(F)(F)F)CC1)C2 (stereo partly drawn) [Compound 82, (R)-1^6-(2,6-Dimethylphenyl)-6-((2S,4s,6S)-6-((2-methoxyethyl)(methyl)amino)spiro[3.3]heptan-2-yl)-7-((1-(trifluoromethyl)cyclopropyl)methyl)-9-oxa-3-thia-2,6-diaza-1(2,4)-pyrimidina-4(1,3)-benzenacyclononaphan-5-one 3,3-dioxide]	
+++ (+++ is >60%)	< 1000	COCCN(C)[C@H]1C[C@@]2(C1)C[C@H](N1C(=O)c3cccc(c3)S(=O)(=O)Nc3nc(cc(-c4c(C)cccc4C)n3)OC[C@H]1CC1(C(F)(F)F)CC1)C2 (stereo partly drawn) [Compound 83, (R)-16-(2,6-Dimethylphenyl)-6-((2R,4r,6R)-6-((2-methoxyethyl)(methyl)amino)spiro[3.3]heptan-2-yl)-7-((1-(trifluoromethyl)cyclopropyl)methyl)-9-oxa-3-thia-2,6-diaza-1(2,4)-pyrimidina-4(1,3)-benzenacyclononaphan-5-one 3,3-dioxide]	
+++ (+++ is >60%)	< 1000	Cc1cccc(C)c1-c1cc2nc(n1)NS(=O)(=O)c1cccc(c1)C(=O)N(C1CC3(C1)CN(C(C)C)C3)[C@H](CC1(C(F)(F)F)CC1)CO2 [Compound 132, (11R)-6-(2,6-Dimethylphenyl)-12-(2-isopropyl-2-azaspiro[3.3]heptan-6-yl)-2,2-dioxo-11-[[1-(trifluoromethyl)cyclopropyl]methyl]-9-oxa-2λ^6-thia-3,5,12,19-tetrazatricyclo[12.3.1.14,8]nonadeca-1(18),4(19),5,7,14,16-hexaen-13-one]	

Reference: patent publication US20230382925A1, “MODULATORS OF CYSTIC FIBROSIS TRANSMEMBRANE CONDUCTANCE REGULATOR” (VERTEX PHARMACEUTICALS INCORPORATED, priority 2020, published 2023)
